What all share (test): Radial Diffusion Assay, antibacterial / growth promoting activity
Common to all, as to type: cell-based

Assay [1] deals with Actinomyces naeslundii JCM8349 strain. To be noted: for antibacterial activity / growth promoting activity: Actinomyces naeslundii JCM8349, 5 μl sample in hole, zone measured after 18 hours at 37° C.; for antibacterial and growth promoting activity, result in words: Actinomyces naeslundii JCM8349 strain. The procedure:
(§1) The influences of gangliosides on oral bacteria were examined by Radial Diffusion Assay. That is, 3 mg of Tryptic Soy medium (Difco), 20 μl of Tween 20, and 100 mg of agarose were dissolved in 10 ml of ultrapure water and sterilized. 100 μl of solution of bacteria having an OD620 of 0.2 (5×10^7 cfu/ml) was added to the sterilized medium, and then the resultant mixture was dispensed in Petri dishes and allowed to solidify at room temperature. Each solidified medium was provided with a hole of about 2.5 mm in diameter and 5 μl of each solution of ganglioside GM3 or ganglioside GD3 derived from milk for the evaluation of the antibacterial effect was added to the hole and incubated at 37° C. for 1 hour. Further, a sterilized medium obtained by dissolving 0.6 g of Tryptic Soy medium and 100 mg of agarose in 10 ml of ultrapure water was superposed on the solidified medium and left to solidify at room temperature, and then stationary cultured in an incubator at 37° C. After 18 hours, the diameter of a clear zone formed around the hole formed in the medium was measured. A length obtained by subtracting the diameter (mm) of the hole formed in the medium from the diameter (mm) of a clear zone formed by inhibition of the growth of the bacterium was defined as antibacterial activity. On the other hand, when colonies of the bacterium were formed around the hole in the medium and an opaque zone was observed, it was assumed that growth promotion took place, and a length obtained by subtracting the diameter (mm) of the hole formed in the medium from the diameter (mm) of an opaque zone was defined as growth promotion activity. The bacterial strains subjected to the test include Streptococcus sobrinus 6715 strain, Streptococcus anginosus ATCC33397 strain, and Staphylococcus aureus Cowan I strain as harmful oral bacteria; Streptococcus agalactiae ATCC46448 strain and Actinomyces naeslundii JCM8349 strain as habitant oral bacteria; and Streptococcus mitis GTC495 strain, Streptococcus mitis ATCC6249 strain, and Streptococcus mitis ATCC903 strain as useful oral bacteria.
(§2) Bacitracin, which is an antibacterial component separated from Bacillus subtilis, was used as a positive control and a sample showing an antibacterial activity of 2.0 mm or more was judged to be positive (having an antibacterial activity). As for the growth promoting effect, a sample having a growth promoting activity of 1.0 mm or more was judged to be positive (having a growth promoting activity).

Assay [2] deals with Streptococcus mitis GTC945. The settings on record: 5 μl sample in hole, zone measured after 18 hours at 37° C. The procedure:
as §1, §2

In assay [3] the test system is Streptococcus mitis ATCC903 strain. To be noted: 5 μl sample in hole, zone measured after 18 hours at 37° C. The procedure:
as §1, §2

For assay [4], the system named is Streptococcus sobrinus 6715 strain. The settings on record: 5 μl sample in hole, zone measured after 18 hours at 37° C. The procedure:
as §1, §2

In assay [5] the test system is Streptococcus anginosus ATCC33397 strain. The settings on record: 5 μl sample in hole, zone measured after 18 hours at 37° C. The procedure:
as §1, §2

Assay [6] has as its system Streptococcus agalactiae ATCC46448 strain. The settings on record: for antibacterial activity / growth promoting activity: Streptococcus agalactiae ATCC46448, 5 μl sample in hole, zone measured after 18 hours at 37° C.; for antibacterial and growth promoting activity, result in words: Streptococcus agalactiae ATCC46448 strain. The procedure: as §1, §2
Assay [7] concerns Staphylococcus aureus Cowan I strain. To be noted: 5 μl sample in hole, zone measured after 18 hours at 37° C. The procedure: as §1, §2
Assay [8] relates to Streptococcus mitis ATCC6249 strain. The settings on record: 5 μl sample in hole, zone measured after 18 hours at 37° C. The procedure: as §1, §2

Bridge positions count the residues as written; N and C are the ends. Square brackets hold non-standard residues; d marks the D form. Peptide text beside a SMILES is read from it. * marks the point of attachment. Ileψ(thiazoline)Cys = CC[C@H](C)[C@H](N)C1=N[C@H](C(=O)*)CS1; dOrn = NCCC[C@@H](N)C(=O)O

Regarding ganglioside GM3, the “antibacterial activity / growth promoting activity” value in assay [1] was “− (Having no antibacterial activity)”; in assay [2] it was “* (Having a growth promoting activity)”; in assay [3], “* (Having a growth promoting activity)”; in assay [4] it was “+ (Having an antibacterial activity)”; in assay [5], “+ (Having an antibacterial activity)”; in assay [6], “− (Having no antibacterial activity)”. For the same molecule, the “antibacterial activity / growth promoting activity” value in assay [7] is on record as “+ (Having an antibacterial activity)”; in assay [8], “* (Having a growth promoting activity)”. In addition, the “antibacterial and growth promoting activity, result in words” value in assay [1] and in assay [6] was “neither an antibacterial activity nor a growth promoting activity” in each case.

In the case of ganglioside GD3, the “antibacterial activity / growth promoting activity” value in assay [1] is given as “− (Having no antibacterial activity)”; in assay [2] it was “* (Having a growth promoting activity)”; in assay [3] it was “* (Having a growth promoting activity)”; in assay [4], “+ (Having an antibacterial activity)”; in assay [5] it was “+ (Having an antibacterial activity)”; in assay [6], “− (Having no antibacterial activity)”. Moreover, the “antibacterial activity / growth promoting activity” value is “+ (Having an antibacterial activity)” in assay [7] and “* (Having a growth promoting activity)” in assay [8]. The “antibacterial and growth promoting activity, result in words” value in assay [1] and in assay [6] was “neither an antibacterial activity nor a growth promoting activity” in each case.

With `CC[C@H](C)[C@H](N)C1=N[C@H](C(=O)N[C@@H](CC(C)C)C(=O)N[C@H](CCC(=O)O)C(=O)N[C@H](C(=O)N[C@H]2CCCCNC(=O)[C@H](CC(N)=O)NC(=O)[C@@H](CC(=O)O)NC(=O)[C@H](Cc3cnc[nH]3)NC(=O)[C@@H](Cc3ccccc3)NC(=O)[C@H]([C@@H](C)CC)NC(=O)[C@@H](CCCN)NC2=O)[C@@H](C)CC)CS1` [Bacitracin, reference compound] ({Ileψ(thiazoline)Cys}-L[dE]IK[dOrn]I[dF]H[dD]N; lactam 4-C), the “antibacterial activity / growth promoting activity” value in assay [1], in assay [2], in assay [3], in assay [4], in assay [5] and in assay [6] was “+ (Having an antibacterial activity)” in each case. In addition, the “antibacterial activity / growth promoting activity” value in assay [7] and in assay [8] was “+ (Having an antibacterial activity)” throughout.

Values taken from patent US8183215B2, “Method of administering oral flora-improving agent, antibacterial agent and growth promoter” (Megmilk Snow Brand Co., Ltd., priority 2004, dated 2012).
